Assays:
Periplaneta americana [1] = test: Insecticidal activity against adult male Periplaneta americana (American cockroach) dosed through injection into abdomen assessed as mortality measured 24 hr post dose; type: functional
Periplaneta americana [2] = test: Insecticidal activity against adult male Periplaneta americana (American cockroach) dosed through injection into abdomen assessed as mortality measured 24 hr post dose in presence of 50 ug metabolic inhibitor PB and 50 ug NIA; type: functional
[3] = test system: Abdominal central nerve cord; test: Neuroblocking activity in adult male Periplaneta americana (American cockroach) abdominal central nerve cords assessed as neuroblocking concentration measured at 22 to 25 degC; type: functional
[4] = Lipophilicity, log P of the compound by HPLC based shake flask method; type: physicochemical
Periplaneta americana [5] = test: Insecticidal activity against adult male Periplaneta americana (American cockroach) dosed through injection into abdomen assessed as mortality measured 24 hr post dose in presence of 50 ug metabolic inhibitor PB; type: functional

| Structure (SMILES) | log(1/MLD) (Periplaneta americana [1]) | log(1/MLD) (Periplaneta americana [2]) | log(1/BC) [3] | logP [4] | log(1/MLD) (Periplaneta americana [5]) |
| --- | --- | --- | --- | --- | --- |
| CCCCN(Cc1ccc(Cl)nc1)/C(C)=N/C#N | <7.01 | 7.71 | 4.48 | 2.13 | – |
| CCCC/C(=N\C#N)N(C)Cc1ccc(Cl)nc1 | <6.37 | 6.77 | <3.37 | 1.87 | <6.37 |
| CC(C)C/C(=N\C#N)N(C)Cc1ccc(Cl)nc1 | <6.3 | 6.9 | <3.3 | 1.75 | <6.3 |
| CCN(Cc1ccc(Cl)nc1)/C(C)=N/C#N | 7.14 | 9.24 | 5.87 | 1.19 | 7.63 |
| C/C(=N\C#N)N(C)Cc1ccc(Cl)nc1 [ACETAMIPRID] | 8.28 | 9.68 | 6.19 | 0.83 | 8.58 |
| CN(Cc1ccc(Cl)nc1)/C(=N/C#N)c1ccccc1 | <6.39 | 6.99 | <3.39 | 1.86 | 6.48 |
| C/C(=N\C#N)N(Cc1ccc(Cl)nc1)C(C)C | 6.78 | 7.67 | 4.47 | 1.46 | – |
| C/C(=N\C#N)N(Cc1ccccc1)Cc1ccc(Cl)nc1 | 6.7 | 7.6 | 4.46 | 2.11 | – |
| CC(C)/C(=N\C#N)N(C)Cc1ccc(Cl)nc1 | 6.44 | 7.44 | 3.44 | 1.39 | 6.74 |
| CCCCC/C(=N\C#N)N(C)Cc1ccc(Cl)nc1 | <6.2 | 6.8 | <3.2 | 2.3 | 6.2 |
| CCCN(Cc1ccc(Cl)nc1)/C(C)=N/C#N | 7.04 | 8.34 | 5.14 | 1.62 | 7.44 |
| CCCCCN(Cc1ccc(Cl)nc1)/C(C)=N/C#N | <6.9 | 7.8 | 5.01 | 2.37 | – |
| O=[N+]([O-])/N=C1\NCCN1Cc1ccc(Cl)nc1 [IMIDACLOPRID] | 8.96 | 10.15 | 5.64 | 0.6 | 9.26 |
| CCC/C(=N\C#N)N(C)Cc1ccc(Cl)nc1 | <6.58 | 7.77 | 3.78 | 1.55 | 6.68 |
| CC/C(=N\C#N)N(C)Cc1ccc(Cl)nc1 | 7.24 | 8.54 | 5.23 | 1.12 | 7.64 |
| C/C(=N\C#N)NCc1ccc(Cl)nc1 | 6.4 | 7.5 | 3.7 | 1.07 | 6.7 |
| CN(Cc1ccc(Cl)nc1)/C(Cc1ccccc1)=N/C#N | <6.58 | 6.78 | <3.58 | 2.13 | <6.58 |
| C=CCN(Cc1ccc(Cl)nc1)/C(C)=N/C#N | 7.07 | 8.07 | 5.46 | 1.56 | – |

Reference: ChEMBL document CHEMBL3045037, “Insecticidal and Neuroblocking Activities of Acetamiprid and Related Compounds” (J Pestic Sci, 2003)
